Laboratory results taken from PubChem BioAssay AID1918953 (Molecular Pharmacology Branch, DTP, NCI, 2023).
Several values for one entry are separate records, joined by “and”; a condition that tells them apart may be missing. Equal values may be shown once.

Tested on: MDA-MB-231 complex spheroid viability
Assay: Anticancer human tumor MDA-MB-231/ATCC cell line growth inhibition;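 note: drug exposure lasted 7 days starting on day 3 of spheroid growth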
Conditions: for viability, T/C: stronger effect = lower value; active = viability on the fitted dose curve at most 10% of control; inactive = the rest
Excerpt: Multicellular complex tumor spheroid response to LSD1 Inhibitor Iadademstat in combination with a variety of drugs and investigational agents in selected tumor cell lines
The current study was undertaken to assess response to LSD1 inhibitors in combination with standard-of-care drugs and investigational agents in solid tumor complex spheroid models as well as in the K-562 leukemia. Complex spheroids include a stromal component modeled by human endothelial cells (HUVEC) and fibroblasts modeled by human mesenchymal stem cells (MSCs). The concentration ranges selected for each drug and investigational agent were based upon clinically achievable concentrations if the clinical Cmax of the agent was known.
Compounds. The drugs and investigational agents used in this study are listed on Table 1. All of the agents used, including staurosporine (NSC755774) and gemcitabine (NSC613327), were obtained from the Developmental Therapeutics Program, NCI. FDA-approved anticancer drugs are available from the NCI at http://dtp.nci.nih.gov/branches/dscb/oncology_drugset_explanation.html. Drugs and investigational agents were >95% pure by proton nuclear magnetic resonance (NMR) and liquid chromatography/mass spectrometry (LC/MS). Stock solutions were prepared at 400x in DMSO, stored at -70 degrees C, and diluted in fresh medium prior to their use. The final concentration of DMSO in cell culture wells never exceeded 0.25% (v/v). The FDA-approved anticancer drug set is available from the Developmental Therapeutics Program at https://dtp.cancer.gov/organization/dscb/obtaining/available_plates.htm. All drugs and investigational agents were tested over a range starting from a high concentration at or near the clinical Cmax and decreasing in half-log increments. If the clinical Cmax for an agent had not been determined, the highest concentration tested was 10 microM.
Cell Lines. The patient-derived cancer cell (PDC) lines: 292921-168-R-J2-PDC, K24384-001-R-PDC, and 521955-158-R2-J5-PDC pancreatic carcinomas, 556581-035-R-J1 ovarian carcinoma, 324938-238-R-J1-PDC, 855422-203-R-J1-PDC and 883617-216-R-J1-PDC urothelial bladder carcinomas, 743489-274-T-PDC renal cell carcinoma, 138582-R-J1 Merkel cell tumor, K60290-347-R-J1 and K57222-313-R-J1-PDC glioblastomas, 653999-131-R-J2-PDC, LG0703-F948-PDC, and 349418-098-R-PDC non-small cell lung carcinomas, 885512-296-R-J2-PDC, 171881-019-R-J1-PDC breast carcinomas and 186277-243-T-J2-PDC and 233499-124-R-J2-PDC colon carcinomas were obtained from the NCI Patient-Derived Models Repository (PDMR, https://pdmr.cancer.gov). The established cell lines NCI/ADR-RES (RRID:CVCL_14520 and OVCAR-5 (RRID:CVCL_1628) ovarian carcinomas, 786-O (RRID:CVCL_1051) and A498 (RRID:CVCL_A498) renal cell carcinoma, NCI-H211 (ATCC, cat. CRL-5824; RRID:CVCL_1529), NCI-H196 (ATCC, cat. CRL-5823, RRID:CVCL_1509), SW 1271 (ATCC, cat. CRL-2177, RRID:CVCL_1716) and NCI-H1876 (ATCC, cat. CRL-5902, RRID:CVCL_1503) small cell lung carcinomas, MDA-MB-231 (RRID:CVCL_0062) and MDA-MB-468 (RRID:CVCL_0419)breast carcinomas (10-12). Pooled donor human umbilical vein endothelial cells (HUVEC, Lonza, cat. CC-2519) and human mesenchymal stem cells (hMSC, Lonza, cat. PT-2501) were purchased from Lonza (Walkersville, MD).
Cell Culture. All cells were maintained in an incubator at 37 degrees C and 5% CO2 with 95% humidity. The PDC lines were cultured according to standard operating procedures established by the NCI PDMR (https://pdmr.cancer.gov). Briefly all PDCs were thawed and cultured in Matrigel-coated flasks prepared with a working solution of 1X Ham's F-12 nutrient mix, without supplementation (Invitrogen, Waltham, MA, cat. 11765054), 100 U/mL penicillin-streptomycin (Invitrogen, cat. 15140122), and 2.5% Matrigel (Corning Inc., Corning, NY, cat. 354248) for the first three passages. […]

Nc1ncn(C2CC(O)C(CO)O2)c(=O)n1 (stereo unspecified) + NC1CCC(NC2CC2c2ccccc2)CC1
> 1 µM: IC50 (curve of first compound, second compound 0.1 µM) | IC50 (curve of first compound, second compound 0.316 µM) | IC50 (curve of first compound, second compound 1 µM) | IC50 (curve of first compound, second compound 3.16 µM)
0.283 µM: IC50 (curve of first compound, second compound 10 µM)
inactive: viability, T/C (second compound 0.1 µM, first compound 0.00316 µM) 94% | viability, T/C (second compound 0.1 µM, first compound 0.01 µM) 94.1% | viability, T/C (second compound 0.1 µM, first compound 0.0316 µM) 92.3% | viability, T/C (second compound 0.1 µM, first compound 0.1 µM) 81.3% | viability, T/C (second compound 0.1 µM, first compound 0.316 µM) 71.7% | viability, T/C (second compound 0.1 µM, first compound 1 µM) 60.4% | viability, T/C (second compound 0.316 µM, first compound 0.00316 µM) 98.2% | viability, T/C (second compound 0.316 µM, first compound 0.01 µM) 96.7% | viability, T/C (second compound 0.316 µM, first compound 0.0316 µM) 92.8% | viability, T/C (second compound 0.316 µM, first compound 0.1 µM) 86.3% | viability, T/C (second compound 0.316 µM, first compound 0.316 µM) 66.8% | viability, T/C (second compound 0.316 µM, first compound 1 µM) 62.7% | viability, T/C (second compound 1 µM, first compound 0.00316 µM) 96.9% | viability, T/C (second compound 1 µM, first compound 0.01 µM) 94.5% | viability, T/C (second compound 1 µM, first compound 0.0316 µM) 89.2% | viability, T/C (second compound 1 µM, first compound 0.1 µM) 71.5% | viability, T/C (second compound 1 µM, first compound 0.316 µM) 67.4% | viability, T/C (second compound 1 µM, first compound 1 µM) 63.9% | viability, T/C (second compound 3.16 µM, first compound 0.00316 µM) 86% | viability, T/C (second compound 3.16 µM, first compound 0.01 µM) 84.1% | viability, T/C (second compound 3.16 µM, first compound 0.0316 µM) 79.2% | viability, T/C (second compound 3.16 µM, first compound 0.1 µM) 72.8% | viability, T/C (second compound 3.16 µM, first compound 0.316 µM) 59% | viability, T/C (second compound 3.16 µM, first compound 1 µM) 54.9% | viability, T/C (second compound 10 µM, first compound 0.00316 µM) 67% | viability, T/C (second compound 10 µM, first compound 0.01 µM) 65.5% | viability, T/C (second compound 10 µM, first compound 0.0316 µM) 63% | viability, T/C (second compound 10 µM, first compound 0.1 µM) 55.4% | viability, T/C (second compound 10 µM, first compound 0.316 µM) 45.2% | viability, T/C (second compound 10 µM, first compound 1 µM) 45.1%

CCc1c2c(nc3ccc(O)cc13)-c1cc3c(c(=O)n1C2)COC(=O)[C@]3(O)CC
active: viability, T/C (compound 0.03 µM) 9.98% and 5.59% | viability, T/C (compound 0.0949 µM) 5.58% and 0.92% | viability, T/C (compound 0.3 µM) 2.32% and 0.78%
< 0.000949 µM: IC50 (curve of compound)
7.45% and 15.4%: viability, T/C (compound 0.00949 µM)
inactive: viability, T/C (compound 0.000949 µM) 13.4% and 18% | viability, T/C (compound 0.003 µM) 8.18% and 14.8%

NC1CC1c1ccc(-c2cccc(O)c2)cc1 (stereo unspecified)
inactive: viability, T/C (compound 0.316 µM) 68.1% [middle of 25 runs] | viability, T/C (compound 1 µM) 62.9% [middle of 25 runs] | viability, T/C (compound 3.16 µM) 64.5% [middle of 25 runs] | viability, T/C (compound 10 µM) 47.7% [middle of 25 runs]
